Test results reported in patent US20180344854A1, “SUPERSATURATED COMPOSITIONS OF BENZIMIDAZOLE COMPOUNDS” (Faes Farma, S.A., priority 2015, published 2018).
In brackets after ≈: the same amount, converted by molar mass.

How the values were obtained:
Type in all cases: physicochemical
[1] = Solubility of cocrystals in water at room temperature, HPLC area; conditions: for Solubility (HPLC area of bilastine), run _1 / Solubility (HPLC area of bilastine), run _2 / solubility on dissolution of cocrystal in water: water; for Solubility (HPLC area of bilastine), run _1 / Solubility (HPLC area of bilastine), run _2: rt; for pH_1 / pH_2: pH of the solution; for solubility on dissolution of cocrystal in water: room temperature, 400 mg in 24 ml
Description: 25 μL sample were injected.
Solubility of cocrystals was determined by stirring the product in water at room temperature (400 mg of product in 24 ml of water, 60 vol.). The product was previously milled in order to reduce the crystal size effect. A sample is collected and filtered using a sintered funnel (n° 3) periodically (30, 60, 180 min and after overnight). The filtered solid was immediately analyzed by XRPD, while the mother liquors are filtered through a 0.22 um filter. […] The concentration of Bilastine is determined by HPLC area (in some experiments where a high solubility was detected the mother liquor was diluted by a factor 10). This concentration is compared with the bilastine concentration obtained in the same conditions in order to determine a relative solubility.

[2] = Aqueous solubility of bilastine in the pH range 5-8; conditions: water, aqueous buffer
Description: The above benzimidazole compounds with selective H1 antihistaminic activity present low solubility in water, which impedes the development of pharmaceutically acceptable means of administering said compounds in liquid form. For example, the solubility of bilastine in the pH range 5-8 is around 500 μg/mL.

[3] = Solubility of bilastine after heating the slurry with acid at 95° C. and cooling (Method 2), HPLC-PDA; conditions: for solubility after 24 h: pH 4.3, after 24 h; for solubility at 2 h: aqueous buffer, thermodynamic from solid, pH 4.3, 95° C. 2 h, filtrate stood overnight at room temperature
Description: Alternative Method for Determining the Solubility
HPLC-PDA analysis was carried out using a Acquity BEH C18 1.7 μm 100×2.1 mm column at a temperature of 40° C. The isocratic mobile phase was composed of acetonitrile/methanol/ammonium bicarbonate 10 mM pH 8.7 (20.2/24.8/55.0%) (% v/v), at a flow rate of 0.6 mL/min. Samples were centrifuged 10 minutes at 4000 rpm at 20° C., and supernatant diluted to approx. 20-40 μg/mL in water. These diluted samples were kept at 18° C. until analysis. Quantization was performed at 220 nm by area comparison against a calibration curve obtained with bilastine working standard.
Method 2. A slurry of bilastine (100 mg) and the organic carboxylic acid (amount needed to obtain a pH of 4.0-4.5) in water (10 ml) was prepared. The mixture was stirred at 95° C. for 2 h and filtered. The filtrate was cooled to room temperature and allowed to stand overnight.
Citric acid was added to a slurry of 100 mg of bilastine in 10 mL of water to get a pH of 4.3 and the mixture was heated at 95° C. for 2 h. Then the solid was filtered off and the filtrate was allowed to stand overnight at room temperature. The solid was separated by centrifugation and the concentration of bilastine was determined by HPLC-PDA.
D,L-Tartaric acid was added to a slurry of 100 mg of bilastine in 10 mL of water to get a pH of 4.3 and the mixture was heated at 95° C. for 2 h. Then the solid was filtered off and the filtrate was allowed to stand overnight at room temperature. The solid was separated by centrifugation and the concentration of bilastine was determined by HPLC-PDA.
Hydrochloric acid 3.7% v/v was added to a slurry of 100 mg of bilastine in 10 mL of water to get a pH of 4.3 and the mixture was heated at 95° C. for 2 h. Then the solid was filtered off and the filtrate was allowed to stand overnight at room temperature. The solid was separated by centrifugation and the concentration of bilastine was determined by HPLC-PDA.

Structure (SMILES) | Solubility (HPLC area of bilastine), run _1 ([1]; 0 min) | Solubility (HPLC area of bilastine), run _2 ([1]; 0 min) | Solubility (HPLC area of bilastine), run _1 ([1]; 30 min) | Solubility (HPLC area of bilastine), run _2 ([1]; 30 min) | Solubility (HPLC area of bilastine), run _1 ([1]; 60 min) | Solubility (HPLC area of bilastine), run _2 ([1]; 60 min) | Solubility (HPLC area of bilastine), run _1 ([1]; 180 min) | Solubility (HPLC area of bilastine), run _2 ([1]; 180 min) | Solubility (HPLC area of bilastine), run _1 ([1]; 1080 min) | Solubility (HPLC area of bilastine), run _2 ([1]; 1080 min) | pH_1 ([1]; run 1, 30 min) | pH_1 ([1]; run 1, 60 min) | pH_1 ([1]; run 1, 180 min) | pH_1 ([1]; run 1, 1080 min) | pH_2 ([1]; run 2, 30 min) | pH_2 ([1]; run 2, 60 min) | pH_2 ([1]; run 2, 180 min) | pH_2 ([1]; run 2, 1080 min) | solubility on dissolution of cocrystal in water [1] | also measured
CCOCCn1c(C2CCN(CCc3ccc(C(C)(C)C(=O)O)cc3)CC2)nc2ccccc21.CCOCCn1c(C2CCN(CCc3ccc(C(C)(C)C(=O)O)cc3)CC2)nc2ccccc21.O=C(O)CCCC(=O)O [GL(I)] | 0 area counts | 0 area counts | 49106 area counts | 48462 area counts | 48363 area counts | 48871 area counts | 50828 area counts | 50771 area counts | 48315 area counts | 47972 area counts | 4.42 | 4.31 | 4.08 | 4.11 | 4.34 | 4.3 | 4.29 | 3.97 | 48000 area counts | –
CCOCCn1c(C2CCN(CCc3ccc(C(C)(C)C(=O)O)cc3)CC2)nc2ccccc21.CCOCCn1c(C2CCN(CCc3ccc(C(C)(C)C(=O)O)cc3)CC2)nc2ccccc21.O=C(O)CCCC(=O)O [GL(IV)] | 0 area counts | 0 area counts | 61110 area counts | 61019 area counts | 61558 area counts | 61328 area counts | 60841 area counts | 62159 area counts | 48734 area counts | 55535 area counts | 4.25 | 4.22 | 4.06 | 4.00 | 4.25 | 4.22 | 4.11 | 3.98 | around 60000 area counts | –
CCOCCn1c(C2CCN(CCc3ccc(C(C)(C)C(=O)O)cc3)CC2)nc2ccccc21.O=C(O)CCCC(=O)O [GL(V)] | 0 area counts | 0 area counts | 61517 area counts | 62303 area counts | 60930 area counts | 60916 area counts | 60628 area counts | 61316 area counts | 59755 area counts | 60769 area counts | 4.00 | 3.99 | 3.93 | 3.95 | 3.97 | 3.95 | 3.94 | 3.97 | 60000 area counts | –
CCOCCn1c(C2CCN(CCc3ccc(C(C)(C)C(=O)O)cc3)CC2)nc2ccccc21 [bilastine, 2-[4-(2-{4-[1-(2-Ethoxyethyl)-1H-benzimidazol-2-yl]-1-piperidinyl}ethyl)phenyl]-2-methylpropanoic acid] | – | – | – | – | – | – | – | – | – | – | – | – | – | – | – | – | – | – | – | solubility [2]: ~500 µg/mL (≈ 1.08 mM); solubility after 24 h ([3]; citric acid): maintained; concentration of bilastine ([3]; hydrochloric acid (comparative), pH 4.3, compared with the pH-dependent solubility of FIG. 1): in accordance with its pH-dependent solubility; solubility after 24 h ([3]; tartaric acid): maintained; solubility at 2 h ([3]; water acidified with D,L-tartaric acid, D,L-tartaric acid): 2700 µg/mL (≈ 5.82 mM); solubility at 2 h ([3]; water acidified with citric acid, citric acid): 2700 µg/mL (≈ 5.82 mM)
